Measured values taken from ChEMBL document CHEMBL4742389, “Cyclohexyl benzamide compounds” (2019).

How the values were obtained:
[1] = molecular target: T1, Probable G-protein coupled receptor 142 (Homo sapiens) (UniProt Q7Z601); assay: Agonist activity at human GPR142 receptor expressed in HEK293 cells assessed as accumulation of inositol phosphate incubated for 1 hr followed by IP1-d2 addition by HTRF assay relative to control; type: functional, cell-based; conditions: filed as agonist
T1 sequence (whole entry): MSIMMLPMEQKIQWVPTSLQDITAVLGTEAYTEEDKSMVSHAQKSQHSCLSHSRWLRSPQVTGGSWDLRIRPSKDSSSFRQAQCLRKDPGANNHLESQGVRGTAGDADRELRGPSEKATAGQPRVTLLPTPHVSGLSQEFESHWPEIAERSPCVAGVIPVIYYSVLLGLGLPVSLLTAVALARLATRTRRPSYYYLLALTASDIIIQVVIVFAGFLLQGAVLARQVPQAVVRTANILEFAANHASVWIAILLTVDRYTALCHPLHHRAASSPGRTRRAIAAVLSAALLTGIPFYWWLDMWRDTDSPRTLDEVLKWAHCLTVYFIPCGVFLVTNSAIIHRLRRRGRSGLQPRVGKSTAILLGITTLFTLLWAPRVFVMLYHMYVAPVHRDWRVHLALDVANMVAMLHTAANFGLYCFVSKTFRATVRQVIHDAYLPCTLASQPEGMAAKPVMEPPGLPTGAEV

[2] = molecular target: T2, Probable G-protein coupled receptor 142 (Homo sapiens, UniProt Q7Z601); assay: Agonist activity at human GPR142 receptor expressed in HEK293 cells assessed as accumulation of inositol phosphate incubated for 1 hr followed by IP1-d2 addition by HTRF assay; type: functional, cell-based
T2 sequence (Q7Z601 whole entry): T1 sequence (whole entry)

[3] = system: Mus musculus; assay: Antidiabetic activity in po dosed lean C57BL/6J mouse assessed as reduction in glucose level administered 90 mins prior to glucose challenge measured for 60 mins by IPGTT; type: functional; conditions: 2.5 h, time 150 min

Row | Structure (SMILES) | Efficacy [1] [%] | EC50 [2] [nM] | ED50 [3] [mg/kg]
1 | Cc1ncn(C)c1-c1nnc([C@H]2CCC[C@@H](N(C)C(=O)c3cccc(Cl)c3)C2)[nH]1 | 110 |  | 0.25
2 | Cc1ncn(C)c1-c1nnc([C@@H]2CCC[C@H](N(C)C(=O)c3cccc(Cl)c3)C2)[nH]1 | 120 |  | 
3 | Cc1ncn(C)c1-c1nnc([C@H]2CCC[C@@H](N(C)C(=O)c3cccc(C(F)(F)F)c3)C2)[nH]1 | 120 | < 120 | 
4 | Cc1ncn(CC(F)F)c1-c1nnc([C@H]2CCC[C@@H](N(C)C(=O)c3cccc(C(F)(F)F)c3)C2)[nH]1 | 120 | < 120 | 
5 | Cc1ncc(-c2nnc([C@H]3CCC[C@@H](N(C)C(=O)c4cccc(C(F)(F)F)c4)C3)[nH]2)n1C | 120 | < 120 | 
6 | COCCn1cnc(C)c1-c1nnc([C@H]2CCC[C@@H](N(C)C(=O)c3cccc(Cl)c3)C2)[nH]1 | 120 | < 120 | 

Now from value to compound, other results behind:

Row | Efficacy [1] [%] | EC50 [2] [nM] | Structure (SMILES) | ED50 [3] [mg/kg]
7 | 120 | < 120 | Cc1nc[nH]c1-c1nnc([C@H]2CCC[C@@H](N(C)C(=O)c3cccc(Cl)c3)C2)[nH]1 | 
8 | 120 | < 120 | Cc1nc[nH]c1-c1nnc([C@H]2CCC[C@@H](N(C)C(=O)c3cccc(OC(F)(F)F)c3)C2)[nH]1 | 
9 | 120 | < 120 | Cc1nc[nH]c1-c1nnc([C@H]2CCC[C@@H](N(C)C(=O)c3cccc(C(F)(F)F)c3)C2)[nH]1 | 
10 | 120 | < 120 | Cc1ncc(-c2nnc([C@H]3CCC[C@@H](N(C)C(=O)c4cccc(Cl)c4)C3)[nH]2)n1C | 
11 | 120 | < 120 | Cc1ncc(-c2nnc([C@H]3CCC[C@@H](N(C)C(=O)c4cccc(C(F)(F)F)c4)C3)[nH]2)[nH]1 | 
12 | 120 | < 120 | CN(C(=O)c1cccc(C(F)(F)F)c1)[C@@H]1CCC[C@H](c2nnc(-c3cnc4n3CCOC4)[nH]2)C1 | 
